This is an account of results in patent publication US20130115256A1, “METHODS FOR TREATING OR PREVENTING VASCULAR GRAFT FAILURE” (priority 2010, published 2013).

One data set has as its target T1, MEK1 (Homo sapiens, UniProt Q02750).
T1 construct: purchased Millipore (KinaseProfiler service)
In words: MEK1 radiometric kinase assay. The class given is biochemical. To be noted: MMI-0100 100 μM; remaining kinase activity. The text has this: (§1) A commercial radiometric assay service was used to test the specificity and potency of MMI-0100 ([…]; SEQ ID NO: 1) by measuring its half maximal inhibitory concentrations (IC50). This quantitative assay measures how much MK2 inhibitor (MMI-0100; […] (SEQ ID NO: 1)) is needed to inhibit 50% of a given biological process or component of a process (i.e., an enzyme, cell, or cell receptor). Specifically, in these assays, a positively charged substrate is phosphorylated with a radiolabeled phosphate group from an ATP if the kinase is not inhibited by an inhibitor peptide. The positively charged substrate then is attracted to a negatively charged filter membrane, quantified with a scintillation counter, and compared to a 100% activity control. ATP concentrations within 15 μM of the apparent Km for ATP were chosen since an ATP concentration near the Km may allow for the kinases to have the same relative amount of phosphorylation activity. The individual conditions for each radiometric assay are as follows.
The reaction was initiated by adding the MgATP. After incubation for 40 minutes at room temperature, 5 μl of this incubation mix was used to initiate the MAPK2 radiometric assay whose reaction condition was the same as the condition for p38 MAPK assay described above.
(§2) IC50 values for inhibitor peptides were determined using Millipore's IC50 Profiler Express service. […]

In another data set the test system is P38MAPK. In words: p38 MAPK radiometric kinase assay. The class given is biochemical. To be noted: MMI-0100 100 μM; remaining kinase activity.
Source text: as §1, with “ATP concentrations within 15 μM of the apparent Km for ATP were chosen since an ATP concentration near the Km may allow for the kinases to have the same relative amount of phosphorylation activity. The individual conditions for each radiometric assay are as follows.” left out
For the p38 MAPK (p38 Mitogen-Activated Protein Kinase) radiometric assay, 5-10 mU of p38 MAPK was incubated with 25 mM Tris pH 7.5, 0.02 mM EGTA, 0.33 mg/mL myelin basic protein (a substrath for p38 MAPK), 10 mM MgAcetate, and 10 μM of [y-^33P-ATP] in the final reaction volume of 25 μl. […] The washed P30 filtermat was dried and its radioactivity was measured by scintillation counter.
as §2

Data set [1] has as its system immortalized human pleural mesothelial cells (ATCC CRL-9444). The data set can be described thus: TNF-α-induced IL-6 expression in mesothelial cells (ELISA). The class given is cell-based. The text has this: In order to examine the efficacy of MMI-0100 ([…]; SEQ ID NO: 1) in inhibiting the production of inflammatory cytokines, an inflammatory response was triggered in vitro by applying TNF-α to immortalized human pleural mesothelial cells (ATCC CRL-9444). A mesothelial cell is a cell type that forms a monolayer of specialized pavement-like cells (mesothelium) that lines the body's abdominal cavities and internal organs. The primary function of this layer, the mesothelium, is to provide a slippery, non-adhesive, and protective surface. Mesothelial cells also are involved in transport of fluid and cells across the peritoneal (abdominal) cavities, antigen presentation, inflammation, tissue repair, coagulation, and tumor cell adhesion. It is well known that mesothelial cells play important role in the peritoneal inflammatory response. In response to bacterial products and macrophage-derived inflammatory cytokines (e.g., TNF-α), mesothelial cells produce Interleukin-1 (IL-1), Interleukin-6 (IL-6), and Interleukin-8 (IL-8), thus amplifying the inflammatory signals and recruiting leukocytes into the infected abdominal cavity.
Expression of inflammatory cytokines was induced by applying 1 or 10 ng/ml of TNF-α to cultured mesothelial cells. Briefly, immortalized human pleural mesothelial cells (ATCC CRL-9444) were grown in Medium199 with Earle's BSS, 0.75 mM L-glutamine (Mediatech Inc., Manassas, Va.), 1.25 g/l sodium bicarbonate (Sigma), 3.3 nM epidermal growth factor (EGF) (MBL International, Woburn, Mass.), 40 nM hydrocortisone (Sigma), 870 nM insulin (MBL International), 20 mM HEPES (Sigma), trace elements mixture B (Mediatech Inc., Waltham, Mass.), 10% fetal bovine serum (FBS) (Hyclone), and 1% penicillin/streptomycin (Mediatech Inc., Waltham, Mass.). […] Human mesothelial cells were treated with two different concentrations (1 and 10 ng/mL) of TNF-α for 2, 6, 12, and 24 hours (data not shown). […] Without TNF-α stimulation, mesothelial cells made negligible amounts of IL-6. […] In subsequent experiments designed to determine whether the MMI-0100 peptide ([…]; SEQ ID NO: 1) could reduce TNF-α induced IL-6 expression, both 1 and 10 ng/mL of TNF-α were selected as stimuli. 10 ng/mL of TNF-α is regarded as more physiologically relevant for mesothelial cells.
Prior to cytokine and/or inhibitor treatment, cells were allowed to acclimate in serum-free media consisting of only Medium 199 with Earle's BSS, 0.75 mM L-glutamine, 1.25 g/l sodium bicarbonate, 20 mM HEPES, trace elements mixture B (Mediatech Inc., Waltham, Mass.), and 1% penicillin/streptomycin (Mediatech Inc., Waltham, Mass.) for 24 hours. After the adapting period, cytokines (TNF-α and IL-1β) with or without MMI-0100 peptide or Rottlerin (Tocris Bioscience, Ellisville, Mo.; IC50=5 μM) were added to the media in order to compare the efficacy of MMI-0100 ([…]; SEQ ID NO: 1) with that of Rottlerin. Specifically, serum-starved mesothelial cells were treated with two different concentrations (1000 μM or 3000 μM) of MMI-0100 ([…] (SEQ ID NO: 1)) at three different time points (6 hours, 12 hours, and 24 hours) using two different concentrations of TNF-α (1 ng/ml or 10 ng/ml) or using 1 ng/ml of IL-1β. Average concentration of IL-6 (pg/ml per 10^5 cells) at each time was determined by cytokine-specific ELISA.

Data set [2] in a line: Toxicity observation (test not specified).

With YARAAARQARAKALARQLGVAA [MMI-0100], the “Percent Activity, MEK1” value on MEK1 was 68%. For the same sequence, in the data set on P38MAPK, the “Percent Activity, P38MAPK” value worked out at 60%. Also, the IL-6 expression entry is “reduced IL-6 expression to the levels at or below the untreated baseline” in data set [1] (1 ng/mL TNF-α, MMI-0100 1000 μM or 3000 μM); “reduced IL-6 expression to the levels of the untreated baseline” in data set [1] (10 ng/mL TNF-α, 3000 μM MMI-0100, every time point (6, 12, 24 hours)); “still effective” in data set [1] (10 ng/mL TNF-α, MMI-0100). The “evidence of toxicity, tissue erosion, or necrosis” value in data set [2] is “did not show any evidence”.
